From the supplement of paper PMC10307832

Experiments:
Assay in all cases: relative viability (nuclei count vs DMSO), 5 days (fraction); higher = more cells survive
NCI-H1993 = system: NCI-H1993
Outline: (§1)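 One day after seeding in 1536-well plates, lung cancer cell lines were dosed by pin tool. Dosing was either single-drug or a fixed anchor-drug dose plus five library-drug doses (not always all listed) in √10 steps. After 5 days, nuclei were stained in one fix-and-stain step and counted on 4× images, and relative viability is the nuclei count of treated wells over that of vehicle wells, given as the median of duplicate plates.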

COR-L23 = system: COR-L23
Outline: as §1

NCI-H1793 = system: NCI-H1793
Outline: as §1

NCI-H1355 = system: NCI-H1355
Outline: as §1

NCI-H838 = system: NCI-H838
Outline: as §1

UMC-11 = system: UMC-11
Outline: as §1

COR-L 105 = system: COR-L 105
Outline: as §1

SK-MES-1 = system: SK-MES-1
Outline: as §1

NCI-H2009 = system: NCI-H2009
Outline: as §1

NCI-H358 = system: NCI-H358
Outline: as §1

EKVX = system: EKVX
Outline: as §1

HOP-62 = system: HOP-62
Outline: as §1

NCI-H1734 = system: NCI-H1734
Outline: as §1

NCI-H647 = system: NCI-H647
Outline: as §1

NCI-H1755 = system: NCI-H1755
Outline: as §1

NCI-H2342 = system: NCI-H2342
Outline: as §1

HARA = system: HARA
Outline: as §1

PC-14 = system: PC-14
Outline: as §1

NCI-H2228 = system: NCI-H2228
Outline: as §1

NCI-H2347 = system: NCI-H2347
Outline: as §1

NCI-H1395 = system: NCI-H1395
Outline: as §1

HCC-15 = system: HCC-15
Outline: as §1

NCI-H2170 = system: NCI-H2170
Outline: as §1

`O=C(O)c1ccc(-c2c[nH]c3ncc(-c4ccccc4)cc23)cc1C1CCCC1` + COc1cc2c(Oc3ccc(NC(=O)C4(C(=O)Nc5ccc(F)cc5)CC4)cc3F)ccnc2cc1OCCCN1CCOCC1 [Foretinib] (partner 0.25 µM) gave a relative viability (NCI-H1993; first compound 0.04 µM) of 0.788, a relative viability (NCI-H1993; first compound 0.1265 µM) of 0.834 and a relative viability (NCI-H1993; first compound 0.4 µM) of 0.759. For the same compound, the relative viability (NCI-H1993; first compound 1.265 µM) was 0.805, the relative viability (COR-L23; first compound 0.04 µM) was 1.02 and the relative viability (COR-L23; first compound 0.1265 µM) was 1.19. It also gave a relative viability (COR-L23; first compound 0.4 µM) of 0.943, a relative viability (COR-L23; first compound 1.265 µM) of 0.636 and a relative viability (NCI-H1793; first compound 0.04 µM) of 0.66. The relative viability (NCI-H1793; first compound 0.1265 µM) was 0.75, the relative viability (NCI-H1793; first compound 0.4 µM) was 0.702 and the relative viability (NCI-H1793; first compound 1.265 µM) was 0.602. It also gave a relative viability (NCI-H1355; first compound 0.04 µM) of 1.08, a relative viability (NCI-H1355; first compound 0.1265 µM) of 0.992 and a relative viability (NCI-H1355; first compound 0.4 µM) of 0.957. For the same compound, the relative viability (NCI-H1355; first compound 1.265 µM) was 0.622, the relative viability (NCI-H838; first compound 0.04 µM) was 1.02 and the relative viability (NCI-H838; first compound 0.1265 µM) was 1.17. The relative viability (NCI-H838; first compound 0.4 µM) was 1.05, the relative viability (NCI-H838; first compound 1.265 µM) was 0.923 and the relative viability (UMC-11; first compound 0.04 µM) was 1.01. For the same compound, the relative viability (UMC-11; first compound 0.1265 µM) was 1.02, the relative viability (UMC-11; first compound 0.4 µM) was 0.982 and the relative viability (UMC-11; first compound 1.265 µM) was 0.77. It also gave a relative viability (COR-L 105; first compound 0.04 µM) of 1.1, a relative viability (COR-L 105; first compound 0.1265 µM) of 1.43 and a relative viability (COR-L 105; first compound 0.4 µM) of 0.886. The relative viability (COR-L 105; first compound 1.265 µM) was 1.22, the relative viability (SK-MES-1; first compound 0.04 µM) was 0.963 and the relative viability (SK-MES-1; first compound 0.1265 µM) was 1.01. For the same compound, the relative viability (SK-MES-1; first compound 0.4 µM) was 0.918, the relative viability (SK-MES-1; first compound 1.265 µM) was 0.794 and the relative viability (NCI-H2009; first compound 0.04 µM) was 1.22. For the same compound, the relative viability (NCI-H2009; first compound 0.1265 µM) was 1.22, the relative viability (NCI-H2009; first compound 0.4 µM) was 1.22 and the relative viability (NCI-H2009; first compound 1.265 µM) was 0.968. For the same compound, the relative viability (NCI-H358; first compound 0.04 µM) was 0.768, the relative viability (NCI-H358; first compound 0.1265 µM) was 0.949 and the relative viability (NCI-H358; first compound 0.4 µM) was 0.619. It also gave a relative viability (NCI-H358; first compound 1.265 µM) of 0.397, a relative viability (EKVX; first compound 0.04 µM) of 0.826 and a relative viability (EKVX; first compound 0.1265 µM) of 0.79. For the same compound, the relative viability (EKVX; first compound 0.4 µM) was 0.868, the relative viability (EKVX; first compound 1.265 µM) was 0.712 and the relative viability (HOP-62; first compound 0.04 µM) was 1.09. For the same compound, the relative viability (HOP-62; first compound 0.1265 µM) was 1.21, the relative viability (HOP-62; first compound 0.4 µM) was 1.01 and the relative viability (HOP-62; first compound 1.265 µM) was 0.815. The relative viability (NCI-H1734; first compound 0.04 µM) was 0.859, the relative viability (NCI-H1734; first compound 0.1265 µM) was 1.04 and the relative viability (NCI-H1734; first compound 0.4 µM) was 0.731. It also gave a relative viability (NCI-H1734; first compound 1.265 µM) of 0.766, a relative viability (NCI-H647; first compound 0.04 µM) of 1.33 and a relative viability (NCI-H647; first compound 0.1265 µM) of 1.35. For the same compound, the relative viability (NCI-H647; first compound 0.4 µM) was 1.14, the relative viability (NCI-H647; first compound 1.265 µM) was 0.965 and the relative viability (NCI-H1755; first compound 0.04 µM) was 0.913. For the same compound, the relative viability (NCI-H1755; first compound 0.1265 µM) was 1.02, the relative viability (NCI-H1755; first compound 0.4 µM) was 0.939 and the relative viability (NCI-H1755; first compound 1.265 µM) was 0.861. The relative viability (NCI-H2342; first compound 0.04 µM) was 1.03, the relative viability (NCI-H2342; first compound 0.1265 µM) was 1.11 and the relative viability (NCI-H2342; first compound 0.4 µM) was 1.18. It also gave a relative viability (NCI-H2342; first compound 1.265 µM) of 0.991, a relative viability (HARA; first compound 0.04 µM) of 0.836 and a relative viability (HARA; first compound 0.1265 µM) of 0.952. The relative viability (HARA; first compound 0.4 µM) was 0.811, the relative viability (HARA; first compound 1.265 µM) was 0.796 and the relative viability (PC-14; first compound 0.04 µM) was 0.943. For the same compound, the relative viability (PC-14; first compound 0.1265 µM) was 0.958, the relative viability (PC-14; first compound 0.4 µM) was 1.01 and the relative viability (PC-14; first compound 1.265 µM) was 0.941. The relative viability (NCI-H2228; first compound 0.04 µM) was 0.783, the relative viability (NCI-H2228; first compound 0.1265 µM) was 0.915 and the relative viability (NCI-H2228; first compound 0.4 µM) was 0.871. The relative viability (NCI-H2228; first compound 1.265 µM) was 0.576, the relative viability (NCI-H2347; first compound 0.04 µM) was 0.861 and the relative viability (NCI-H2347; first compound 0.1265 µM) was 0.783. It also gave a relative viability (NCI-H2347; first compound 0.4 µM) of 1.01, a relative viability (NCI-H2347; first compound 1.265 µM) of 0.803 and a relative viability (NCI-H1395; first compound 0.04 µM) of 0.983. The relative viability (NCI-H1395; first compound 0.1265 µM) was 1.05, the relative viability (NCI-H1395; first compound 0.4 µM) was 1.01 and the relative viability (NCI-H1395; first compound 1.265 µM) was 0.944. The relative viability (HCC-15; first compound 0.04 µM) was 1.11, the relative viability (HCC-15; first compound 0.1265 µM) was 1.04 and the relative viability (HCC-15; first compound 0.4 µM) was 0.92. The relative viability (HCC-15; first compound 1.265 µM) was 0.678, the relative viability (NCI-H2170; first compound 0.04 µM) was 0.994 and the relative viability (NCI-H2170; first compound 0.1265 µM) was 1. It also gave a relative viability (NCI-H2170; first compound 0.4 µM) of 0.968 and a relative viability (NCI-H2170; first compound 1.265 µM) of 0.777.
